Laboratory results as given in publication PMC11345841, “Exploring 2-Sulfonylpyrimidine Warheads as Acrylamide Surrogates for Targeted Covalent Inhibition: A BTK Story” (Journal of Medicinal Chemistry, 2024).
Where two headings read alike, the source gives them in different places.

Experiments:
Assay in all cases: KINOMEscan ScanTK
Assay type in all cases: binding
EGFR(L747-T751del,Sins) = details: for %Control / % difference (compound - Ib %Control): @1000nM
CTK = target: T1, CTK (Homo sapiens, UniProt P42679)
T1 construct: purchased Eurofins DiscoverX KINOMEscan (scanTK)
T1 sequence (P42679 1-507): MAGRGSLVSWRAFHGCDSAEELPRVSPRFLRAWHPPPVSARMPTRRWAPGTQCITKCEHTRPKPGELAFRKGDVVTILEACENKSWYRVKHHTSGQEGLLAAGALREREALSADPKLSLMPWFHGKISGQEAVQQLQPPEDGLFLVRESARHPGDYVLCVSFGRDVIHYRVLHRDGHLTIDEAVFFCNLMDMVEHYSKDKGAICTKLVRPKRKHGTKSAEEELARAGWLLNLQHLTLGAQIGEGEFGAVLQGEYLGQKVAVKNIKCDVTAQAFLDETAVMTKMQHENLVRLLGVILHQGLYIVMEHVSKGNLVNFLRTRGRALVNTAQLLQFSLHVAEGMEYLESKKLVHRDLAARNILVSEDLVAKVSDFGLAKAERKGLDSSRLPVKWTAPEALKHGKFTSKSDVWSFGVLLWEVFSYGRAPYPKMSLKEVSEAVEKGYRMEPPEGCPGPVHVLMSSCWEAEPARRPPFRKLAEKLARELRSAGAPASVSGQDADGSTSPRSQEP

FES = target: T2, FES (Homo sapiens, UniProt P07332)
T2 construct: purchased Eurofins DiscoverX KINOMEscan (scanTK)

DDR2 = target: T3, DDR2 (Homo sapiens, UniProt Q16832)
T3 construct: purchased Eurofins DiscoverX KINOMEscan (scanTK)
T3 sequence (Q16832 22-855): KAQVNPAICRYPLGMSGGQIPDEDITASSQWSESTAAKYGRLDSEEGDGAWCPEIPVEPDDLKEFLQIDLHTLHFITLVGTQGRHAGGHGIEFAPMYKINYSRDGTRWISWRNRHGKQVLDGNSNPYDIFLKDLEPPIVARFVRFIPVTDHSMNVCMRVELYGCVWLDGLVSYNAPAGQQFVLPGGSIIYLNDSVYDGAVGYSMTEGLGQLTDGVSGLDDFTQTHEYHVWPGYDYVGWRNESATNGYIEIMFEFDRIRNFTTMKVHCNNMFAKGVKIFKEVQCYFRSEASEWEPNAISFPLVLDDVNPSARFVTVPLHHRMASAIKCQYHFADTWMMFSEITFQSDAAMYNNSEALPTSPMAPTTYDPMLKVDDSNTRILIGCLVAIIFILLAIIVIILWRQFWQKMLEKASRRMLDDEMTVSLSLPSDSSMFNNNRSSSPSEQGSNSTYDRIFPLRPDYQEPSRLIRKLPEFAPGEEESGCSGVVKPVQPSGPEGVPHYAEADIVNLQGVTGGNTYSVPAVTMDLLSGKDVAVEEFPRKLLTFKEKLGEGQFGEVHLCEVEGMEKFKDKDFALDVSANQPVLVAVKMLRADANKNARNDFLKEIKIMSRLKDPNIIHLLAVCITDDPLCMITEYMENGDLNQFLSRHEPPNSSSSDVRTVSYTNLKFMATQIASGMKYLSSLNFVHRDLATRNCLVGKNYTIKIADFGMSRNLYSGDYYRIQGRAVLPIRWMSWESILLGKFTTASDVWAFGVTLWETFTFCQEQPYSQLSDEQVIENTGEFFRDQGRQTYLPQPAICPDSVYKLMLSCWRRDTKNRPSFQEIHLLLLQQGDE

LTK = target: T4, LTK (Homo sapiens, UniProt P29376)
T4 construct: purchased Eurofins DiscoverX KINOMEscan (scanTK)

FER = target: T5, FER (Homo sapiens, UniProt P16591)
T5 construct: purchased Eurofins DiscoverX KINOMEscan (scanTK)
T5 sequence (P16591 whole entry): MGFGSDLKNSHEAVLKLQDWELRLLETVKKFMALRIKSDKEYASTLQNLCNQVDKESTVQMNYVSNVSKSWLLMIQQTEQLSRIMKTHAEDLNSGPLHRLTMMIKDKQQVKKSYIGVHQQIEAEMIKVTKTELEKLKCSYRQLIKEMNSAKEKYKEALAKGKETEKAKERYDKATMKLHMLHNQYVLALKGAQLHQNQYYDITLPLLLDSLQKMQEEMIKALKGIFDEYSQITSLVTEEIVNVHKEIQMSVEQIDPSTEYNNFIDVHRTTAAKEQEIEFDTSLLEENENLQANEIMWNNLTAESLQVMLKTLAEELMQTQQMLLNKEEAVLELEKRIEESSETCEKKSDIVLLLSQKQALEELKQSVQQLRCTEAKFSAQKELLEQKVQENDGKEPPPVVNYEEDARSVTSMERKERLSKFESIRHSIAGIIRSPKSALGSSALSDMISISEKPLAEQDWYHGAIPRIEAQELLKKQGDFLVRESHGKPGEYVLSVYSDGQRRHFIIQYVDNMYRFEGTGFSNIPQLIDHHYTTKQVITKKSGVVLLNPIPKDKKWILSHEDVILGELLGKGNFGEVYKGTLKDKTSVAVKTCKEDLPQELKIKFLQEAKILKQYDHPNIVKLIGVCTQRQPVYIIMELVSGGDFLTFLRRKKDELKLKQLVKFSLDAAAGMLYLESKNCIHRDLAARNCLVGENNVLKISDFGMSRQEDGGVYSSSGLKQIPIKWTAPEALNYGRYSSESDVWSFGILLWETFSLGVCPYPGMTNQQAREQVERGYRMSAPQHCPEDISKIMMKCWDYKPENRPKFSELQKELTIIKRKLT

FAK = target: T6, FAK (Homo sapiens, UniProt Q05397)
T6 construct: purchased Eurofins DiscoverX KINOMEscan (scanTK)
T6 sequence (Q05397 whole entry): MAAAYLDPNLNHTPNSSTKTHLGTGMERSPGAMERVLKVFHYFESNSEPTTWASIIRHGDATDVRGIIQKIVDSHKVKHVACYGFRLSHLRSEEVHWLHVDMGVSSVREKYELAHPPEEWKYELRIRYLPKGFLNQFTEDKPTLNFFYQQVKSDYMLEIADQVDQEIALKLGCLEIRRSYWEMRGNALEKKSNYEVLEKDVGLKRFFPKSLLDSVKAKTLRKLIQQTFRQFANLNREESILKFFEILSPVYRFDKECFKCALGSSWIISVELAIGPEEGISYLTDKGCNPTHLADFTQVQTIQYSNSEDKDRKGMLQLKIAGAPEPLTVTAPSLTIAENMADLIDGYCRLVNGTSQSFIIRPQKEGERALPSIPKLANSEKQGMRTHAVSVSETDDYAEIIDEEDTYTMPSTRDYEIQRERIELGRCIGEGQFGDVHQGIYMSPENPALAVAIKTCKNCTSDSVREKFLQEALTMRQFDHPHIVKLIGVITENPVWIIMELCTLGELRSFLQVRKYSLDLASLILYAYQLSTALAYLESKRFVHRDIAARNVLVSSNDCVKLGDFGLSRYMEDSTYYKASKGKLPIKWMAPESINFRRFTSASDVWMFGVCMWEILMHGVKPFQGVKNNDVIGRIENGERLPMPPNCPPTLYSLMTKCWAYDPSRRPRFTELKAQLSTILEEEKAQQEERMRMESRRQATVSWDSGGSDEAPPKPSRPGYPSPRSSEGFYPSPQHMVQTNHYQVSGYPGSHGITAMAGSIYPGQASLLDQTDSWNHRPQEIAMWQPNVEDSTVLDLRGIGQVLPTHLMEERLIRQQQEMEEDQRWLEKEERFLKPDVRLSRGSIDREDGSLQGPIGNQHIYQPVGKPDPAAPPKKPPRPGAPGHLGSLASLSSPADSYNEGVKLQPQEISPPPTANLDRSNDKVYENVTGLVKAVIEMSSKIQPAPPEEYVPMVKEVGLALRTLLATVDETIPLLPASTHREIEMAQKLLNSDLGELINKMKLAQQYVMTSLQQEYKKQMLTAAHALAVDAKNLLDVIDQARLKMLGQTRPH

[1] = target: T7, ABL1(F317L)-nonphosphorylated (Homo sapiens, UniProt P00519, F317L)
T7 construct: purchased Eurofins DiscoverX KINOMEscan (scanTK)
T7 sequence (P00519 whole entry F317L): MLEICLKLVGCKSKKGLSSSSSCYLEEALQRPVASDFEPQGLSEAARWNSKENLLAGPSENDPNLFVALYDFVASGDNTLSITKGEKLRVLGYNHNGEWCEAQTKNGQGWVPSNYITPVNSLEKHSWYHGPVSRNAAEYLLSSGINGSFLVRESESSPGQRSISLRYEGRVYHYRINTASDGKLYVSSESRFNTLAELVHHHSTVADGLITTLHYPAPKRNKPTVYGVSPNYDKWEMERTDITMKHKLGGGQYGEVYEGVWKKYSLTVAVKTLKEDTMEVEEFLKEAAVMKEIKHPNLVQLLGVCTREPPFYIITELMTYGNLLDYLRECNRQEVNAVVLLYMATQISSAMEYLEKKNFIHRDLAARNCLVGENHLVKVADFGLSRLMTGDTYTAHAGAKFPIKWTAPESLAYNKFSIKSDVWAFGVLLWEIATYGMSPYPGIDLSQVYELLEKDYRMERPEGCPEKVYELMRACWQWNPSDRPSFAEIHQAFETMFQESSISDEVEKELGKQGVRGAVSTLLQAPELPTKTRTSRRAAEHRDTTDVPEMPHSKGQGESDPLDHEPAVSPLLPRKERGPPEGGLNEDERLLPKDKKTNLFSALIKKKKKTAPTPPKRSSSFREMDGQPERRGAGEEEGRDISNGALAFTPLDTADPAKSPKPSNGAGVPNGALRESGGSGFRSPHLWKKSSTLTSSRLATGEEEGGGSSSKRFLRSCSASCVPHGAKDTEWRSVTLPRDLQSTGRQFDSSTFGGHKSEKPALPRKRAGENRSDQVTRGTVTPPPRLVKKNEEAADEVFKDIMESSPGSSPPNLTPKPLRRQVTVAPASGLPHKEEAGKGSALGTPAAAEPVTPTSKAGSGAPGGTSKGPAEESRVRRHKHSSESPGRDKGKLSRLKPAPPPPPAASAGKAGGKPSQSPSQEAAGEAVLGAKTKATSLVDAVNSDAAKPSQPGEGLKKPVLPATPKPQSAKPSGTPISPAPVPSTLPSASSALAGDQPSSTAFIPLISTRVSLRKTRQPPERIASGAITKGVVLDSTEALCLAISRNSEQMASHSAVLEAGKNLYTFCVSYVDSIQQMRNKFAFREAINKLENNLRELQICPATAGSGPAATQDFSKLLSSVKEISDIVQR

RET = target: T8, RET (Homo sapiens, UniProt P07949)
T8 construct: purchased Eurofins DiscoverX KINOMEscan (scanTK)
T8 sequence (P07949 29-1114): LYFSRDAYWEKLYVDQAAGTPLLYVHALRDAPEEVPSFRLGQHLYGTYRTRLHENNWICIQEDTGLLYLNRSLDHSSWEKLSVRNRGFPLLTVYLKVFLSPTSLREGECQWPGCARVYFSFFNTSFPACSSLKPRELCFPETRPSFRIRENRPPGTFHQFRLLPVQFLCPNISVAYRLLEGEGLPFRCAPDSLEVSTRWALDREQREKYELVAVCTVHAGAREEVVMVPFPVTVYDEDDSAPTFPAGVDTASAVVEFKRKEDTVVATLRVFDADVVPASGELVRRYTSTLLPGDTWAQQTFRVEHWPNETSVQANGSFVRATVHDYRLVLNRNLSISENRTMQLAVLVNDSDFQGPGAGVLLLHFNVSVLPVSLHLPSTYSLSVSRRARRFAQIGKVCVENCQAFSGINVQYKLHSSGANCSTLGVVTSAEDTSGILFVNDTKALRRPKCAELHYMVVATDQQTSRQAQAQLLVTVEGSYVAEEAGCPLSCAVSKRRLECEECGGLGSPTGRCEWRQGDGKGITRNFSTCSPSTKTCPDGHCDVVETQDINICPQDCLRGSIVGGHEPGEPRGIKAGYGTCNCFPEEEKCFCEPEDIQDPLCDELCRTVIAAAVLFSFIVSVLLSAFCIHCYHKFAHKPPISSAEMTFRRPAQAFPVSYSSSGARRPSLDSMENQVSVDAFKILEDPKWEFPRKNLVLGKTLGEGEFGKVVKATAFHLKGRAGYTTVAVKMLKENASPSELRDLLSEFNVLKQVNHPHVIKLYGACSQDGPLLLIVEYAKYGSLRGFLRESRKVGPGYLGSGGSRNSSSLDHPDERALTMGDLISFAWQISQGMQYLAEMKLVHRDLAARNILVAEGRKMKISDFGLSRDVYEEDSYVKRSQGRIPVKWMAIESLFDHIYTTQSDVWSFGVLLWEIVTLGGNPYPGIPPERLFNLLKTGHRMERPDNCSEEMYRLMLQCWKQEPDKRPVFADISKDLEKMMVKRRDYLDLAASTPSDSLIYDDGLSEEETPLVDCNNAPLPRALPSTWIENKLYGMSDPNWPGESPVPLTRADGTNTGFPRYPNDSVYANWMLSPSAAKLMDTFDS

MET(M1250T) = target: T9, MET(M1250T) (Homo sapiens, UniProt P08581, M1250T)
T9 construct: purchased Eurofins DiscoverX KINOMEscan (scanTK)

EGFR(L858R) = target: T10, EGFR(L858R) (Homo sapiens, UniProt P00533, L858R)
T10 construct: purchased Eurofins DiscoverX KINOMEscan (scanTK)

LCK = target: T11, LCK (Homo sapiens, UniProt P06239)
T11 construct: purchased Eurofins DiscoverX KINOMEscan (scanTK)
T11 sequence (P06239 whole entry): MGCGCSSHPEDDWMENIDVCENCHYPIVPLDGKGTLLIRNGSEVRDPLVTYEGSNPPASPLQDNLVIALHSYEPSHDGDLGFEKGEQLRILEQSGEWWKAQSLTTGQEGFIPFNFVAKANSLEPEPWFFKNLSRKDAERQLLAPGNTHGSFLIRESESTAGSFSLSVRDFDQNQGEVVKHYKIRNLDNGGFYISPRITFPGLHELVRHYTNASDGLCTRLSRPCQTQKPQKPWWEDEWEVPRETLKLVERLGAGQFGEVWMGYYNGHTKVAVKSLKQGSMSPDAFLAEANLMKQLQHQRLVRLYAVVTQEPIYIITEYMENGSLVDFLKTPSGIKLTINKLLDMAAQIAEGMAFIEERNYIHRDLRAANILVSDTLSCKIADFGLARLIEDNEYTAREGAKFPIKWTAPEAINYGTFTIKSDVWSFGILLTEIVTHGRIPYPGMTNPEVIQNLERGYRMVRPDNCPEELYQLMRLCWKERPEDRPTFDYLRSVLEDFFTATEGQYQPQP

[2] = @1000nM, DDR2, read-out: %Control
[3] = DDR2, read-out: %Control @1000nM

| SMILES | %Control @1000nM (EGFR(L747-T751del,Sins)) | %Control (EGFR(L747-T751del,Sins)) | remaining binding at 1 µM (CTK; @1000nM, read-out: %Control) | remaining binding at 1 µM (CTK; read-out: %Control @1000nM) | remaining binding at 1 µM (FES; @1000nM, read-out: %Control) | remaining binding at 1 µM (FES; read-out: %Control @1000nM) | remaining binding at 1 µM (LTK; @1000nM, read-out: %Control) | remaining binding at 1 µM (LTK; read-out: %Control @1000nM) | remaining binding at 1 µM (FER; @1000nM, read-out: %Control) | remaining binding at 1 µM (FER; read-out: %Control @1000nM) | remaining binding at 1 µM (FAK; @1000nM, read-out: %Control) | remaining binding at 1 µM (FAK; read-out: %Control @1000nM) | remaining binding at 1 µM ([1]; @1000nM, read-out: %Control) | remaining binding at 1 µM ([1]; read-out: %Control @1000nM) | remaining binding at 1 µM (RET; @1000nM, read-out: %Control) | remaining binding at 1 µM (RET; read-out: %Control @1000nM) | remaining binding at 1 µM (MET(M1250T); @1000nM, read-out: %Control) | remaining binding at 1 µM (MET(M1250T); read-out: %Control @1000nM) | % difference (compound - Ib %Control) (EGFR(L747-T751del,Sins)) | %Control difference from compound Ib at 1 µM (EGFR(L858R); @1000nM) | other results |
| --- | --- | --- | --- | --- | --- | --- | --- | --- | --- | --- | --- | --- | --- | --- | --- | --- | --- | --- | --- | --- | --- |
| C=CC(=O)N1CCC[C@@H](n2nc(-c3ccc(Oc4ccccc4)cc3)c3c(N)ncnc32)C1 [Compound 1g, Ibrutinib, reference compound] | 2.6% | 2.6% | 80% | 80% | 100% | 100% | 81% | 81% | 100% | 100% | 100% | 100% | 32% | 32% | 12% | 12% | 96% | 96% | – | – | remaining binding at 1 µM (DDR2; read-out: %Control): 97%; remaining binding at 1 µM (DDR2; read-out: %Control @1000nM): 97% |
| Cc1cnc(S(C)(=O)=O)nc1N1CCCC(n2nc(-c3ccc(Oc4ccccc4)cc3)c3c(N)ncnc32)C1 (centres unmarked) [Compound 8a, 1-(1-(5-Methyl-2-(methylsulfonyl)pyrimidin-4-yl)piperidin-3-yl)-3-(4-phenoxyphenyl)-1H-pyrazolo[3,4-d]pyrimidin-4-amine] | 70% | 70% | 67% | 67% | 100% | 100% | 93% | 93% | 100% | 100% | 99% | 99% | 76% | 76% | 56% | 56% | 88% | 88% | 67.4% | 81.1% | remaining binding at 1 µM (EGFR(L858R); @1000nM, read-out: %Control): 83%; remaining binding at 1 µM (EGFR(L858R); read-out: %Control @1000nM): 83%; difference in %Control versus compound Ib at 1 µM (CTK; @1000nM): -13%; difference in %Control versus compound Ib at 1 µM (FES; @1000nM): 0%; remaining binding at 1 µM (LCK; @1000nM, read-out: %Control): 2%; remaining binding at 1 µM (LCK; read-out: %Control @1000nM): 2%; difference in %Control from reference compound Ib at 1 µM (DDR2; @1000nM, DDR2): -5%; remaining binding at 1 µM (DDR2; [2]): 92%; remaining binding at 1 µM (DDR2; [3]): 92%; difference in %Control versus compound Ib at 1 µM (FER; @1000nM): 0%; difference in %Control versus compound Ib at 1 µM (FAK; @1000nM): -1%; difference in % of control binding versus compound Ib at 1 µM ([1]; @1000nM): 44% |
| COC(=O)c1cnc(S(C)(=O)=O)nc1N1CCCC(n2nc(-c3ccc(Oc4ccccc4)cc3)c3c(N)ncnc32)C1 (centres unmarked) [Compound 8b, Methyl 4-(3-(4-Amino-3-(4-phenoxyphenyl)-1H-pyrazolo[3,4-d]pyrimidin-1-yl)piperidin-1-yl)-2-(methylsulfonyl)pyrimidine-5-carboxylate] | 65% | 65% | 88% | 88% | 100% | 100% | 94% | 94% | 90% | 90% | 100% | 100% | 70% | 70% | 56% | 56% | 96% | 96% | 62.4% | 72.1% | remaining binding at 1 µM (EGFR(L858R); @1000nM, read-out: %Control): 74%; remaining binding at 1 µM (EGFR(L858R); read-out: %Control @1000nM): 74%; difference in %Control versus compound Ib at 1 µM (CTK; @1000nM): 8%; difference in %Control versus compound Ib at 1 µM (FES; @1000nM): 0%; remaining binding at 1 µM (LCK; @1000nM, read-out: %Control): 8.3%; remaining binding at 1 µM (LCK; read-out: %Control @1000nM): 8.3%; difference in %Control from reference compound Ib at 1 µM (DDR2; @1000nM, DDR2): -6%; remaining binding at 1 µM (DDR2; [2]): 91%; remaining binding at 1 µM (DDR2; [3]): 91%; difference in %Control versus compound Ib at 1 µM (FER; @1000nM): -10%; difference in %Control versus compound Ib at 1 µM (FAK; @1000nM): 0%; difference in % of control binding versus compound Ib at 1 µM ([1]; @1000nM): 38% |
| CCOC(=O)c1cnc(S(C)(=O)=O)nc1N1CCC[C@@H](n2nc(-c3ccc(Oc4ccccc4)cc3)c3c(N)ncnc32)C1 [Compound 8c, Ethyl (R)-4-(3-(4-Amino-3-(4-phenoxyphenyl)-1H-pyrazolo[3,4-d]pyrimidin-1-yl)piperidin-1-yl)-2-(methylsulfonyl)pyrimidine-5-carboxylate] | 74% | 74% | 74% | 74% | 96% | 96% | 100% | 100% | 100% | 100% | 96% | 96% | 90% | 90% | 84% | 84% | 96% | 96% | 71.4% | 64.1% | remaining binding at 1 µM (EGFR(L858R); @1000nM, read-out: %Control): 66%; remaining binding at 1 µM (EGFR(L858R); read-out: %Control @1000nM): 66%; difference in %Control versus compound Ib at 1 µM (CTK; @1000nM): -6%; difference in %Control versus compound Ib at 1 µM (FES; @1000nM): -4%; remaining binding at 1 µM (LCK; @1000nM, read-out: %Control): 25%; remaining binding at 1 µM (LCK; read-out: %Control @1000nM): 25%; difference in %Control from reference compound Ib at 1 µM (DDR2; @1000nM, DDR2): -22%; remaining binding at 1 µM (DDR2; [2]): 75%; remaining binding at 1 µM (DDR2; [3]): 75%; difference in %Control versus compound Ib at 1 µM (FER; @1000nM): 0%; difference in %Control versus compound Ib at 1 µM (FAK; @1000nM): -4%; difference in % of control binding versus compound Ib at 1 µM ([1]; @1000nM): 58% |
